Assays:
Type in all cases: cell-based, E. coli
Conditions in all cases: Escherichia coli
[1] = system: TEM-1 R244S allele; assay: MIC assay on agar plates, TEM-1 allele R244S
Description: (§1) Selected single base mutations were re-introduced into TEM-1 by site-directed PFunkel mutagenesis on the 20 μL volume scale. The MIC for ampicillin and piperacillin of the mutants was assessed with and without 6 μg/mL tazobactam by spotting 10^4 CFU on Mueller-Hinton agar plates containing 50 μg/mL Spec, 300 μM IPTG, and √2-fold increments of either ampicillin or piperacillin. Plates were incubated at 37° C. for 12 hrs.

[2] = system: TEM-1 Y105S allele; assay: MIC assay on agar plates, TEM-1 allele Y105S
Description: as §1

[3] = system: TEM-1 Y105N allele; assay: MIC assay on agar plates, TEM-1 allele Y105N
Description: as §1

[4] = system: TEM-1 Y105D allele; assay: MIC assay on agar plates, TEM-1 allele Y105D
Description: as §1

[5] = system: wildtype TEM-1 (allele: none); assay: MIC assay on agar plates, cells with TEM-1 (no mutation)
Description: as §1

[6] = system: TEM-1 M69L allele; assay: MIC assay on agar plates, TEM-1 allele M69L
Description: as §1

[7] = system: TEM-1 S235T allele; assay: MIC assay on agar plates, TEM-1 allele S235T
Description: as §1

[8] = system: TEM-1 N276D allele; assay: MIC assay on agar plates, TEM-1 allele N276D
Description: as §1

[9] = + tazobactam 6 μg/mL, median of three replicates
[10] = + tazobactam 6 μg/mL, replicate 1
[11] = + tazobactam 6 μg/mL, replicate 2
[12] = + tazobactam 6 μg/mL, replicate 3
[13] = − tazobactam, median of three replicates

Compound `CC1(C)S[C@@H]2[C@H](NC(=O)[C@H](N)c3ccccc3)C(=O)N2[C@H]1C(=O)O` [ampicillin] has an MIC [1, 9] of 90.5 µg/mL, an MIC [1, 10] of 64 µg/mL and an MIC [1, 11] of 128 µg/mL. For the same compound, the MIC [1, 12] was 90.5 µg/mL, the MIC [1, 13] was 4100 µg/mL and the MIC ([1]; − tazobactam, replicate 1) was 2900 µg/mL. For the same compound, the MIC ([1]; − tazobactam, replicate 2) was 4100 µg/mL, the MIC ([1]; − tazobactam, replicate 3) was 4100 µg/mL and the MIC [2, 9] was 1020 µg/mL. The MIC [2, 10] was 724 µg/mL, the MIC [2, 11] was 1020 µg/mL and the MIC [2, 12] was 1020 µg/mL. The MIC [2, 13] was 2900 µg/mL, the MIC ([2]; − tazobactam, replicate 1) was 2900 µg/mL and the MIC ([2]; − tazobactam, replicate 2) was 2900 µg/mL. The MIC ([2]; − tazobactam, replicate 3) was 2900 µg/mL, the MIC [3, 9] was 1450 µg/mL and the MIC [3, 10] was 148 µg/mL. It also gave an MIC [3, 11] of 1450 µg/mL, an MIC [3, 12] of 1450 µg/mL and an MIC [3, 13] of 5790 µg/mL. It also gave an MIC ([3]; − tazobactam, replicate 1) of 4100 µg/mL, an MIC ([3]; − tazobactam, replicate 2) of 5790 µg/mL and an MIC ([3]; − tazobactam, replicate 3) of 5790 µg/mL. It also gave an MIC [4, 9] of 256 µg/mL, an MIC [4, 10] of 256 µg/mL and an MIC [4, 11] of 256 µg/mL. The MIC [4, 12] was 362 µg/mL, the MIC [4, 13] was 1450 µg/mL and the MIC ([4]; − tazobactam, replicate 1) was 1450 µg/mL. The MIC ([4]; − tazobactam, replicate 2) was 1450 µg/mL, the MIC ([4]; − tazobactam, replicate 3) was 1450 µg/mL and the MIC [5, 9] was 22.6 µg/mL. For the same compound, the MIC [5, 10] was 16 µg/mL, the MIC [5, 11] was 22.6 µg/mL and the MIC [5, 12] was 22.6 µg/mL. The MIC [5, 13] was 8190 µg/mL, the MIC ([5]; − tazobactam, replicate 1) was 8190 µg/mL and the MIC ([5]; − tazobactam, replicate 2) was 8190 µg/mL. For the same compound, the MIC ([5]; − tazobactam, replicate 3) was 8190 µg/mL, the MIC [6, 9] was 724 µg/mL and the MIC [6, 10] was 512 µg/mL. The MIC [6, 11] was 724 µg/mL, the MIC [6, 12] was 724 µg/mL and the MIC [6, 13] was 8190 µg/mL. The MIC ([6]; − tazobactam, replicate 1) was 5790 µg/mL, the MIC ([6]; − tazobactam, replicate 2) was 8190 µg/mL and the MIC ([6]; − tazobactam, replicate 3) was 8190 µg/mL. For the same compound, the MIC [7, 9] was 362 µg/mL, the MIC [7, 10] was 256 µg/mL and the MIC [7, 11] was 362 µg/mL. The MIC [7, 12] was 512 µg/mL, the MIC [7, 13] was 8190 µg/mL and the MIC ([7]; − tazobactam, replicate 1) was 8190 µg/mL. The MIC ([7]; − tazobactam, replicate 2) was 8190 µg/mL, the MIC ([7]; − tazobactam, replicate 3) was 8190 µg/mL and the MIC [8, 9] was 90.5 µg/mL. The MIC [8, 10] was 90.5 µg/mL, the MIC [8, 11] was 90.5 µg/mL and the MIC [8, 12] was 128 µg/mL. It also gave an MIC [8, 13] of 8190 µg/mL, an MIC ([8]; − tazobactam, replicate 1) of 8190 µg/mL and an MIC ([8]; − tazobactam, replicate 2) of 8190 µg/mL. For the same compound, the MIC ([8]; − tazobactam, replicate 3) was 8190 µg/mL.
In the case of `CCN1CCN(C(=O)N[C@@H](C(=O)N[C@@H]2C(=O)N3[C@@H]2SC(C)(C)[C@@H]3C(=O)O)c2ccccc2)C(=O)C1=O` [piperacillin], the MIC [1, 9] is reported as 2 µg/mL, the MIC [1, 10] is reported as 2 µg/mL and the MIC [1, 11] is reported as 2.83 µg/mL. It also gave an MIC [1, 12] of 2 µg/mL, an MIC [1, 13] of 1450 µg/mL and an MIC ([1]; − tazobactam, replicate 1) of 1020 µg/mL. For the same compound, the MIC ([1]; − tazobactam, replicate 2) was 1450 µg/mL, the MIC ([1]; − tazobactam, replicate 3) was 1450 µg/mL and the MIC [2, 9] was 16 µg/mL. For the same compound, the MIC [2, 10] was 16 µg/mL, the MIC [2, 11] was 16 µg/mL and the MIC [2, 12] was 16 µg/mL. The MIC [2, 13] was 1450 µg/mL, the MIC ([2]; − tazobactam, replicate 1) was 1020 µg/mL and the MIC ([2]; − tazobactam, replicate 2) was 1450 µg/mL. It also gave an MIC ([2]; − tazobactam, replicate 3) of 1450 µg/mL, an MIC [3, 9] of 45 µg/mL and an MIC [3, 10] of 32 µg/mL. For the same compound, the MIC [3, 11] was 45 µg/mL, the MIC [3, 12] was 45 µg/mL and the MIC [3, 13] was 2050 µg/mL. For the same compound, the MIC ([3]; − tazobactam, replicate 1) was 2050 µg/mL, the MIC ([3]; − tazobactam, replicate 2) was 2050 µg/mL and the MIC ([3]; − tazobactam, replicate 3) was 2050 µg/mL. The MIC [4, 9] was 1 µg/mL, the MIC [4, 10] was 1 µg/mL and the MIC [4, 11] was 1 µg/mL. For the same compound, the MIC [4, 12] was 1 µg/mL, the MIC [4, 13] was 1.4 µg/mL and the MIC ([4]; − tazobactam, replicate 1) was 1.4 µg/mL. The MIC ([4]; − tazobactam, replicate 2) was 1.4 µg/mL, the MIC ([4]; − tazobactam, replicate 3) was 1.4 µg/mL and the MIC [5, 9] was 1.4 µg/mL. For the same compound, the MIC [5, 10] was 1 µg/mL, the MIC [5, 11] was 1.4 µg/mL and the MIC [5, 12] was 1.4 µg/mL. For the same compound, the MIC [5, 13] was 2900 µg/mL, the MIC ([5]; − tazobactam, replicate 1) was 2900 µg/mL and the MIC ([5]; − tazobactam, replicate 2) was 2900 µg/mL. The MIC ([5]; − tazobactam, replicate 3) was 2900 µg/mL, the MIC [6, 9] was 22.6 µg/mL and the MIC [6, 10] was 22.6 µg/mL. The MIC [6, 11] was 32 µg/mL, the MIC [6, 12] was 22.6 µg/mL and the MIC [6, 13] was 2900 µg/mL. The MIC ([6]; − tazobactam, replicate 1) was 2050 µg/mL, the MIC ([6]; − tazobactam, replicate 2) was 2900 µg/mL and the MIC ([6]; − tazobactam, replicate 3) was 2900 µg/mL. The MIC [7, 9] was 22.6 µg/mL, the MIC [7, 10] was 32 µg/mL and the MIC [7, 11] was 16 µg/mL. For the same compound, the MIC [7, 12] was 22.6 µg/mL, the MIC [7, 13] was 2900 µg/mL and the MIC ([7]; − tazobactam, replicate 1) was 2900 µg/mL. For the same compound, the MIC ([7]; − tazobactam, replicate 2) was 2900 µg/mL, the MIC ([7]; − tazobactam, replicate 3) was 2900 µg/mL and the MIC [8, 9] was 1.4 µg/mL. For the same compound, the MIC [8, 10] was 1 µg/mL, the MIC [8, 11] was 1.4 µg/mL and the MIC [8, 12] was 2 µg/mL. It also gave an MIC [8, 13] of 2900 µg/mL, an MIC ([8]; − tazobactam, replicate 1) of 2900 µg/mL and an MIC ([8]; − tazobactam, replicate 2) of 2900 µg/mL. It also gave an MIC ([8]; − tazobactam, replicate 3) of 2900 µg/mL.

Source: patent publication US9347057B2, “Methods for efficient, expansive user-defined DNA mutagenesis” (THE JOHNS HOPKINS UNIVERSITY, priority 2012, dated 2016)
